Our source for the Log 1/ED50 values is ChEMBL document CHEMBL1121491, “Ultraviolet photoelectron spectroscopy of cyclic amidines. 2. Electronic structure of clonidine and some related 2-(phenylimino)imidazolidines with alpha-adrenergic activity” (1980).

SMILES strings stand for the structures.

This test concerns Rattus norvegicus. In words: Hypotensive activity by intravenous administration to rats. It counts as functional.
In turn, `Cc1cccc(C)c1N=C1NCCN1` returned a Log 1/ED50 of 0.85.

Turning to `c1ccc(NC2=NCCN2)cc1`, the Log 1/ED50 is -2.1.

`Fc1cccc(F)c1N=C1NCCN1` had a Log 1/ED50 of -0.41.

`Cc1ccccc1N=C1NCCN1` registered a Log 1/ED50 of -0.67.

The compound `Clc1ccccc1N=C1NCCN1` gave a Log 1/ED50 of 0.13.

For the compound `Clc1cccc(Cl)c1NC1=NCCN1` [CLONIDINE], the Log 1/ED50 was 1.99.

Compound `c1cc2c(c(NC3=NCCN3)c1)CCCC2` [TRAMAZOLINE] came in with a Log 1/ED50 of 0.47.
